Assay results taken from US20090215729A1, “MICROPARTICLE COMPOSITIONS TO MODIFY CANCER PROMOTING CELLS” (priority 2008, published 2009).

Test system: 4t1-luc cancer cells
Test: syngeneic 4t1 mouse model of breast cancer, tumor volume growth
Assay type: in vivo
Details: Balb/c mice, tail vein injection 100 microliters, six administrations, twice a week starting day 1 after tumor challenge, caliper measurements, relative to PBS control
Description: In vivo testing was done with a syngeneic 4t1 model of breast cancer in immuno-competent Balb/c mice. […] Briefly, primary tumors were established in mammary tissue of 6 week old Balb/c mice by injection of 106 4t1-12B cells subcutaneously under the nipple. The mice were kept in standard housing and with a normal diet. Each group of mice (6-10 per group, 20 g±10% body weight) were injected (100 microliters) 2 times per week through the tail vein for a period of 3 weeks, starting either on day one or day six after the tumor challenge. Clodronate solution was dissolved in PBS and given intravenously starting on day one after tumor challenge. Control mice were injected intravenously through the tail vein with PBS. Tumor growth was measured in a blinded fashion with a caliper each week and tumor volumes were calculated using the measured dimensions. Body weights were recorded weekly, and mice were sacrificed on day 34.

## O=P(O)(O)C(Cl)(Cl)P(=O)(O)O [Clodronate (5.6 mg/mL) in PBS, clodronate]
  tumor volume growth of 4t1-luc cancer cells: did not inhibit the growth of 4 μl tumors relative to PBS control
Listed as clodronate solution
  tumor volume growth of 4t1-luc cancer cells: unable to inhibit growth of 4 μl tumors as effectively as clodronate-hydroxyapatite
